{"source": "ChEMBL document CHEMBL1201862", "about": "“PubChem BioAssay data set” (2004)", "key": {"[1]": {"experiment": "Luminescence Cell-Based Dose Retest to Confirm Inhibitors of Cancer Stem Cells. [Related pubchem assays (depositor defined):AID2717, AID2721]", "format": "functional", "details": "Homo sapiens"}, "[2]": {"system": "Streptococcus sp. 'group A'", "experiment": "growth inhibition of control SK(-) GAS strain, dose response, counter-screen for streptokinase expression inhibitor project, luminescence, kanamycin, BacTiterGlo, confirmation (AID 1900)", "format": "functional, organism-based"}, "Streptococcus": {"system": "Streptococcus", "experiment": "Group A Streptococcus viability loss, dose response, counter-screen for streptokinase expression inhibitor project, luminescence, BacTiterGlo (AID 1915);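 also: potency for reduction of bacterial viability or growth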", "format": "functional, organism-based"}, "Streptokinase A": {"biological_target": "T1, Streptokinase A (Streptococcus pyogenes serotype M1, UniProt P10520)", "T1 sequence (P10520 whole entry)": "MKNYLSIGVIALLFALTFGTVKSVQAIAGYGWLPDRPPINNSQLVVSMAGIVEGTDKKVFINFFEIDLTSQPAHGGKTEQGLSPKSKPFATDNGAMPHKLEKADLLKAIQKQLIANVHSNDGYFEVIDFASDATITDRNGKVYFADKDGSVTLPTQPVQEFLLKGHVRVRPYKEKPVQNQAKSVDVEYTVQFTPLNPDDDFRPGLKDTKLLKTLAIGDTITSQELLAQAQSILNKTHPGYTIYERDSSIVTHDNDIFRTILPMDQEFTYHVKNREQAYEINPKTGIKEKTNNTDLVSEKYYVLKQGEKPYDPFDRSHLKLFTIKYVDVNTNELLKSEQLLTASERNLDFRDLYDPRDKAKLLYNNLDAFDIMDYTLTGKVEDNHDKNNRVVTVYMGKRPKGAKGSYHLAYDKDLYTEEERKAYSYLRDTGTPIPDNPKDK", "experiment": "S. pyogenes streptokinase expression inhibitors, potency, dose response, plasminogen activation absorbance, OD405 (AID 1914);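 also: secreted streptokinase activity via plasminogen activation per viability signal from cell pellet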", "format": "functional, Streptococcus pyogenes M1 GAS"}, "[3]": {"experiment": "inhibitors of intracellular T. cruzi replication, confirmation, NIH3T3 host cells, beta-gal luminescence (AID 2044);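 also: luminescent beta-galactosidase reporter signal from transgenic T. cruzi replicating inside host cells; inhibitors lower the luminescence signal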", "format": "functional, cell-based"}, "[4]": {"biological_target": "Disintegrin and metalloproteinase domain-containing protein 17 (Homo sapiens, UniProt P78536)", "sequence (P78536 whole entry, the tested form may be a part)": "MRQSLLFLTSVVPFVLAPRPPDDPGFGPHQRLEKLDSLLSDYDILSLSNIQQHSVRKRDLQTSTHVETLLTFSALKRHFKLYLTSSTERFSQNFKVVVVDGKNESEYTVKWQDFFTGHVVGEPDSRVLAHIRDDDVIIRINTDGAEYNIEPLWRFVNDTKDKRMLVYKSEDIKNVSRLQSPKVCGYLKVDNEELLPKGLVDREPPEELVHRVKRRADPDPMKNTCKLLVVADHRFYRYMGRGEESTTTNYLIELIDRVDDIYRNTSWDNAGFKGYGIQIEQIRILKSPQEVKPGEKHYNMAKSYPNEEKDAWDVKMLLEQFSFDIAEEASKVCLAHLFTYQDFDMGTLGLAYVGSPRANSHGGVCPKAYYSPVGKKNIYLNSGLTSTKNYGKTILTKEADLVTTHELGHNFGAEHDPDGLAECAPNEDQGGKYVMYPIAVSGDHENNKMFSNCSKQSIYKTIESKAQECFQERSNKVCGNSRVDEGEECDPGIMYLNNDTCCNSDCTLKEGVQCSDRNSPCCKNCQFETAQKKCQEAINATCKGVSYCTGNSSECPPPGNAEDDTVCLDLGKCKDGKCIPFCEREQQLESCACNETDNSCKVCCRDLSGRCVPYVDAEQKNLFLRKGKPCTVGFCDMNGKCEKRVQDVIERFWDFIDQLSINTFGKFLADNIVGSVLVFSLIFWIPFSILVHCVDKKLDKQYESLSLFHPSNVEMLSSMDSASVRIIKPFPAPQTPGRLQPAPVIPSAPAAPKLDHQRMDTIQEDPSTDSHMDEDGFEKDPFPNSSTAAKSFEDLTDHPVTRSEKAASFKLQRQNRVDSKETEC", "experiment": "ADAM17 protease inhibitors, dose response, counter-screen for ADAM10 exosite inhibitor project, biochemical, quenched FRET substrate (AID 743253)"}, "[5]": {"experiment": "cytotoxicity toward NIH3T3 fibroblasts, dose response, counter-screen, cell-based, ATP luminescence, mouse fibroblasts (AID 2010);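 also: cells exposed to compound for about 90 hours before reading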", "format": "functional"}, "[6]": {"experiment": "NIH/3T3 fibroblast cytotoxicity, dose response, cytotoxicity control, cell-based, plate reader, dry powder, set 2 (AID 652280)", "format": "functional", "details": "NIH3T3"}, "[7]": {"experiment": "T. cruzi growth inhibition in host cells, dose response, cell-based, plate reader, dry powder, set 2 (AID 652275)", "format": "functional"}, "[8]": {"experiment": "inhibitors of non-replicating M. tuberculosis, dose response, luciferase, dry powder (AID 651619)", "format": "functional", "details": "Mycobacterium tuberculosis"}, "[9]": {"experiment": "inhibitors of non-replicating M. tuberculosis, dose response, luciferase, dry powder (AID 651620)", "format": "functional", "details": "Mycobacterium tuberculosis"}, "[10]": {"experiment": "Late stage assay provider results from the probe development effort to identify inhibitors of the Plasmodium falciparum M18 Aspartyl Aminopeptidase (M18AAP): radiolabel-based cell-based dose response assay to identify compounds that inhibit P. falciparum growth in RBCs, Set 2..", "format": "functional"}, "[11]": {"experiment": "A375 melanoma cell viability loss, dose response, counter-screen for MITF inhibitor project, CellTiter-Glo luminescence, dry powder, set 4 (AID 624364);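 also: A375 melanoma cells are MITF independent so this is a counter screen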", "format": "functional, cell-based", "details": "A-375"}}, "note": "The source made the active and inactive calls."}
{"compound": "O=C(Nc1cccc(S(=O)(=O)Nc2ccc(Cl)cc2)c1)c1cc2c(s1)CCCC2", "values": [{"measurement": "AC50", "setting": "[1]", "result": "2.28 µM (active)"}, {"measurement": "EC50", "setting": "[2]", "result": "2.51 µM (active)"}, {"measurement": "EC50", "setting": "Streptococcus", "result": "1.98 µM (active)"}, {"measurement": "EC50", "setting": "Streptokinase A", "result": "5.01 µM (active)"}, {"measurement": "EC50", "setting": "[3]", "result": "1.09 µM (active)"}, {"measurement": "IC50", "setting": "[4]", "result": "> 69.5 µM (inactive)"}, {"measurement": "EC50", "setting": "[5]", "result": "10.9 µM (active)"}]}
{"compound": "CC(C)(C)[S@@+]([O-])N1Cc2cc(C(=O)NCc3ccc4c(c3)OCO4)nc(-c3cccc(-c4ccncc4)c3)c2[C@H]1CCO", "values": [{"measurement": "AC50", "setting": "[6]", "result": "8.56 µM (active)"}, {"measurement": "AC50", "setting": "[7]", "result": "0.341 µM (active)"}]}
{"compound": "[N-]=[N+]=NCCOCCNC(=O)c1ccc(C[S+]([O-])c2nnc(-c3ccc(Cl)cc3)o2)nc1", "note": "(stereo not drawn)", "values": [{"measurement": "IC90", "setting": "[8]", "result": "16 µM (active)"}, {"measurement": "IC90", "setting": "[9]", "result": "16 µM (active)"}]}
{"compound": "COc1ccc(CCNc2cncc3ccccc23)cc1OC", "values": [{"measurement": "IC50", "setting": "[10]", "result": "4.5 µM (active)"}]}
{"compound": "C=CCNC1=C(NC(=O)c2ccccc2)C(=O)c2ccccc2C1=O", "values": [{"measurement": "AC50", "setting": "[11]", "result": "> 70 µM (inactive)"}]}
